Experimental findings from US5143925A, “Alteration of rate and character of hair growth” (priority 1991, dated 1992) are described below.

In test [1] the test system is flank organs of male intact Golden Syrian hamsters. The experiment in a line: Hamster flank organ hair growth (hair mass) after topical application. Type of test: in vivo. The settings on record: for Flank Organ Hair Mass, Treated: topical 10-25 μl once a day; for Flank Organ Hair Mass, Treated / % Inhibition of hair mass (+SEM): 18 days; for % Inhibition of hair mass (+SEM): treated organ vs vehicle-treated organ of same animal; for Hair shaft structure, microscopic examination: hair shafts harvested from flank organs. The method, then: A vehicle or carrier was prepared having the following composition:
The compound BBD was mixed with separate portions of the foregoing vehicle to provide specimens containing 1,2,5,10, and 20% by weight of the inhibitor respectively.
Five groups (seven or eight animals in each group) of male intact Golden Syrian hamsters were provided. These animals are considered acceptable models for human beard hair growth in that they display oval shaped flank organs, one on each side, each about 8 mm. in major diameter, which grow thick black and coarse hair similar to human beard hair. These organs produce hair in response to androgens in the hamster. The flank organs of each hamster were depilated by applying a thioglycolate-based chemical depilatory (Surgex), and to one organ of each animal was applied 10-25 μl. of vehicle alone once a day, while to the other organ of each animal was applied an equal amount of vehicle containing inhibitor. After 2 1/2 weeks of such applications (five days a week for a total of eighteen days), the flank organs were shaved and the amount of recovered hair (hair mass) from each was weighed. The extent of reduction in hair growth by the inhibitor was expressed as the percent decrease in hair mass on the organ treated with inhibitor as compared to the organ treated with vehicle alone. As a control, one additional control group of eight animals had both flank organs of each animal treated with vehicle alone.

The next test relates to transglutaminase. The experiment in a line: Inhibiting effect on transglutaminase activity. The test is classed as biochemical.

Take `O=C(N[C@@H](Cc1ccccc1)C(=O)NCC1CC(Br)=NO1)OCc1ccccc1` (some centres unmarked) [BBD, 3-bromo-5-(N-benzyloxycarbonyl-1-phenylalanamido-methyl)-4,5-dihydroisoxazole]: the “Flank Organ Hair Mass, Treated” value in test [1] (1% BBD in vehicle) is 2.614 ± .19 mg ± SEM; in test [1] (2% BBD in vehicle), 2.827 ± .23 mg ± SEM; in test [1] (5% BBD in vehicle) it was 2.279 ± .28 mg ± SEM; in test [1] (10% BBD in vehicle) it was 1.389 ± .12 mg ± SEM; in test [1] (20% BBD in vehicle) it was “.333 ± .06 mg ± SEM”. Besides, the “% Inhibition of hair mass (+SEM)” value in test [1] (1% BBD) is 19.54 ± 6.07%; in test [1] (2% BBD), -3.63 ± 9.91%; in test [1] (5% BBD), 22.83 ± 9.62%; in test [1] (10% BBD) it was 56.08 ± 4.64%; in test [1] (20% BBD) it was 87.87 ± 1.54%. For the same molecule, in test [1] (1-20% BBD, topical, hamster flank organ), the “Length of the hair, visual inspection during treatment” value was “decrease in the length of the hair dependent upon the concentration of the inhibitor”. The “Hair shaft structure, microscopic examination” value in test [1] (5% and 10% concentrations of BBD) is “less dramatic but visually obvious changes in the medulla of hair shafts”; in test [1] (20% concentration of BBD), “dramatic deterioration of the hair shaft structure including disorganization of the medulla and cuticle”. Moreover, the “Inhibiting effect on transglutaminase activity” value in the test with transglutaminase is given as “dose related”.
